Laboratory results published in patent US11414404B2, “Compounds for the treatment of BRAF-associated diseases and disorders” (Array BioPharma Inc., priority 2019, dated 2022).
Counter-ions that a name gives are not always drawn. Like-named read-outs stand apart in the source and are kept apart here.

Legend:
[1] = molecular target: full-length FLAG-tagged B-Raf(V600E) (Homo sapiens (Human), UniProt P15056, V600E); experiment: BRAF V600E enzyme assay (TR-FRET competitive displacement of fluorescent tracer); assay type: binding
Sequence of full-length FLAG-tagged B-Raf(V600E) (P15056 whole entry V600E): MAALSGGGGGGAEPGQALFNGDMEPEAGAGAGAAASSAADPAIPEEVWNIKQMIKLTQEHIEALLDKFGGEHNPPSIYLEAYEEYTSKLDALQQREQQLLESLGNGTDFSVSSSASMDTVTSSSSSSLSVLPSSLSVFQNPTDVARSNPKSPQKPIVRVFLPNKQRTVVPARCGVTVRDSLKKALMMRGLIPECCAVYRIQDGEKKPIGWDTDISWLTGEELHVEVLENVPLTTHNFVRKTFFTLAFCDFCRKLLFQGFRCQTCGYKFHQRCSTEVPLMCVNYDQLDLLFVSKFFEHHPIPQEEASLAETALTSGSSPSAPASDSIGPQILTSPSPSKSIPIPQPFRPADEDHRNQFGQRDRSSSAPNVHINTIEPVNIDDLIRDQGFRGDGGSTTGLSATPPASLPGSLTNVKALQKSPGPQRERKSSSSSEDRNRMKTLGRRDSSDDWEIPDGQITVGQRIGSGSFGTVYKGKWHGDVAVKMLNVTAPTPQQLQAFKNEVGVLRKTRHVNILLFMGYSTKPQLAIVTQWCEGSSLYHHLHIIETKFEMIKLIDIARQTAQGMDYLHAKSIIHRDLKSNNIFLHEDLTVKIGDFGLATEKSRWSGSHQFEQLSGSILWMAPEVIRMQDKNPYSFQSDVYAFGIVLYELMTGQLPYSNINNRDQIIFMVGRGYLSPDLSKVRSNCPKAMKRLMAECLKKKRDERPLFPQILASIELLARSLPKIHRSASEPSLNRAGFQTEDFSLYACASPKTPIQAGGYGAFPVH
From the text: A competitive displacement assay was configured for B-Raf that monitors the amount of a fluorescently-tagged “tracer” bound to B-Raf via TR-FRET from an anti-tag Eu-labeled antibody also bound to B-Raf.
[formula] • where: • Xmax Average Uninhibited Controls • Xmin Average Background
A 4-parameter logistic model was the fit to the POC data for each compound.

BCRP = BCRP (Homo sapiens (Human), UniProt Q9UNQ0); experiment: BCRP MDCKII permeability assay: efflux ratio; conditions: dog
Sequence of BCRP (Q9UNQ0 whole entry, species assumed): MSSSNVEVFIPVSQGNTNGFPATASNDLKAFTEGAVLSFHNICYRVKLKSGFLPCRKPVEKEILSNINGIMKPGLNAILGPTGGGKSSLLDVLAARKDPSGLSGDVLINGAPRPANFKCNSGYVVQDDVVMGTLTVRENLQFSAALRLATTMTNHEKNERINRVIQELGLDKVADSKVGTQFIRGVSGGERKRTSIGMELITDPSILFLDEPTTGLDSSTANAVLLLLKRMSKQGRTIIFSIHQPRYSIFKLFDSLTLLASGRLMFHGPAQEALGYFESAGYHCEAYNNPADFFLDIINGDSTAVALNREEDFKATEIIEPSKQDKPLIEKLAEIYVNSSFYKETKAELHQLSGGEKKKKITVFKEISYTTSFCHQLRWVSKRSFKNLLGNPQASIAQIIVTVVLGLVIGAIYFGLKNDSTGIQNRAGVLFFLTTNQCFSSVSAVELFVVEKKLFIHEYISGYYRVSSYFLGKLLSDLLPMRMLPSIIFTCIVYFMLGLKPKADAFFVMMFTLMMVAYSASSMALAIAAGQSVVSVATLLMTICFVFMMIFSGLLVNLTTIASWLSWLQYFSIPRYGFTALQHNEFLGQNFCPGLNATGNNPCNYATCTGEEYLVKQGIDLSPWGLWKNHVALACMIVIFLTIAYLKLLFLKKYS

P-gp (MDR1) = P-gp (MDR1) (Homo sapiens (Human), UniProt P08183); experiment: MDR1 LLC-PK1 permeability assay: efflux ratio; conditions: pig, LLC-PK1
Sequence of P-gp (MDR1) (P08183 whole entry, species assumed): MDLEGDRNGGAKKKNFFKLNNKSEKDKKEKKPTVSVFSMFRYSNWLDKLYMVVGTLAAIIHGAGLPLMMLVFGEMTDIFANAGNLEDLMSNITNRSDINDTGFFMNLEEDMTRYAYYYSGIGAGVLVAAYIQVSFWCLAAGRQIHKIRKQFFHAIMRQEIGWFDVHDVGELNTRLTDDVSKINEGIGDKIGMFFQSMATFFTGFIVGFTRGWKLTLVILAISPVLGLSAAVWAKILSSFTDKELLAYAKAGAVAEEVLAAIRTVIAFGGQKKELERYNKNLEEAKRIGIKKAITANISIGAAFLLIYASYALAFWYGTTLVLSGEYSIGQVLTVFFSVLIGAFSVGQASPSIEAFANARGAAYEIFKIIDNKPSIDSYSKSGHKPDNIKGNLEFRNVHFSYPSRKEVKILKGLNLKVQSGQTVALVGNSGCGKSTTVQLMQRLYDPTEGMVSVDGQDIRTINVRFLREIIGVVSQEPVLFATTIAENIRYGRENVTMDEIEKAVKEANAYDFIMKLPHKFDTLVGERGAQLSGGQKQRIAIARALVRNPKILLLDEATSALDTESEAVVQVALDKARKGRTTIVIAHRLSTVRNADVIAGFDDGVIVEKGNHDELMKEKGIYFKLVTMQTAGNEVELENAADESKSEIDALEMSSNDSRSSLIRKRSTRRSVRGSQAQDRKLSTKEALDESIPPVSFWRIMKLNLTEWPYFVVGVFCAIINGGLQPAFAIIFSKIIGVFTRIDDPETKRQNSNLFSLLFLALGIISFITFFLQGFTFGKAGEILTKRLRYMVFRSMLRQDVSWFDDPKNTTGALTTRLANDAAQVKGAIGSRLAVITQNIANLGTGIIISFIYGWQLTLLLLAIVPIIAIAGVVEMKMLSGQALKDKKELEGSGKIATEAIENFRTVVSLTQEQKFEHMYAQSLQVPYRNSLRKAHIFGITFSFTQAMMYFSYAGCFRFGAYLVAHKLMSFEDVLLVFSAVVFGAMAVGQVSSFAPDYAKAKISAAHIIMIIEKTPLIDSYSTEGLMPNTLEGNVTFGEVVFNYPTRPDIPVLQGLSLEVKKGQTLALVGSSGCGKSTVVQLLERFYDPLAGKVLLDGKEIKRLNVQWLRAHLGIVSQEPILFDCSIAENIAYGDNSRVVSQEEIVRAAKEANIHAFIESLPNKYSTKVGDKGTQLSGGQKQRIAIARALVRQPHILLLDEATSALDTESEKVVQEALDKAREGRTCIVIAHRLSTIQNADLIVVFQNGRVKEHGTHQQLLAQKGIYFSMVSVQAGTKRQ
Procedure: (§1) Both LLC-PK1 and MDR1 transfected LLC-PK1 cells were cultured and plated according to manufacturer's recommendations with the exception that the passage media contained only 2% fetal bovine serum to extend passage time out to seven days.
(§2) Both positive and negative controls were used to assess functionality of P-gp or BCRP efflux in the assays. […] Final organic concentration in the assay was 1%. All dosing solutions contained 10 μM lucifer yellow to monitor LLC-PK1 or MDCKII cell monolayer integrity.
(§3) For the apical to basolateral determination (A to B), 75 μL of the test article in transport buffer were added to the apical side of the individual transwells and 250 μL of basolateral media, without compound or lucifer yellow, were added to each well. For the basolateral to apical determination (B to A), 250 μL of test article in transport buffer were added to each well and 75 μL transport buffer, without compound or lucifer yellow, were added to each transwell. All tests were performed in triplicate, and each compound was tested for both apical to basolateral and basolateral to apical transport. The plates were incubated for 2 hours on a Lab-Line Instruments Titer Orbital Shaker (VWR, West Chester, Pa.) at 50 rpm and 37° C. with 5% CO2. All culture plates were removed from the incubator and 50 μL of media were removed from the apical and basolateral portion of each well and added to 150 μL of 1 μM labetalol in 2:1 acetonitrile (acetonitrile): H2O, v/v.
(§4) These values were accepted when found to be below 2% for apical to basolateral and 5% basolateral to apical flux across the MDR1-transfected LLC-PK1 or BCRP-transfected MDCKII cell monolayers. The plates were sealed and the contents of each well analyzed by LC-MS/MS. The compound concentrations were determined from the ratio of the peak areas of the compound to the internal standard (labetalol) in comparison to the dosing solution.
(§5) The LC-MS/MS system was comprised of an HTS-PAL autosampler (Leap Technologies, Carrboro, N.C.), an HP1200 HPLC (Agilent, Palo Alto, Calif.), and a MDS Sciex 4000 Q Trap system (Applied Biosystems, Foster City, Calif.). […] The total run time, including re-equilibration, for a single injection was 1.2 minutes. Mass spectrometric detection of the analytes was accomplished using the ion spray positive mode.
An efflux ratio is calculated from the mean apical to basolateral (A−B) Papp data and basolateral to apical (B−A) Papp data: Efflux ratio=Papp(B−A)/Papp(A−B)

[2] = MDR1 LLC-PK1 and BCRP MDCKII permeability assay: permeability coefficient (Papp)
Procedure: as §1
BCRP transfected MDCKII cells were cultured and plated according to manufacturer's recommendations. Assay conditions included with and without the BCRP-specific inhibitor, K0143, at a concentration of 0.3 μM to ascertain the contribution of BCRP to the efflux value of the test compound.
as §2, §3, §4, §5
where Cd, V, t and C0 are the detected concentration (μM), the volume on the dosing side (mL); the incubation time (s) and the initial dosing concentration (μM), respectively. The calculations for Papp were made for each replicate and then averaged.

[3] = averaged IC50, 60 min at ambient temperature, 11-point dosing, top dose 10 μM

Row | SMILES | IC50 [1, 3] [nM] | efflux ratio at 2 h, 1 µM (BCRP) | efflux ratio at 2 h, 1 µM (P-gp (MDR1)) | Papp at 2 h, 1 µM [2] [×10⁻⁶ cm/s] | IC50 [1] [nM]
1 | CCCS(=O)(=O)Nc1ccc(F)c(Nc2ccc3ncn(CCOC)c(=O)c3c2C)c1Cl [Example 30, N-(2-chloro-4-fluoro-3-((3-(2-methoxyethyl)-5-methyl-4-oxo-3,4-dihydroquinazolin-6-yl)amino)phenyl)propane-1-sulfonamide] | 45.5 | 1.92 | 2.59 | 24.8 | –
2 | Cc1c(Oc2c(F)cnc(NS(=O)(=O)CCCF)c2F)ccc2ncn(C)c(=O)c12 [Example 64, N-(4-((3,5-dimethyl-4-oxo-3,4-dihydroquinazolin-6-yl)oxy)-3,5-difluoropyridin-2-yl)-3-fluoropropane-1-sulfonamide] | 10.4 | 31 | 10.9 | 9.78 | –
3 | Cc1c(Nc2c(F)ccc(NS(=O)(=O)N3CC[C@@H](F)C3)c2Cl)ccc2ncn(C)c(=O)c12 [Example 22, (R)—N-(2-chloro-3-((3,5-dimethyl-4-oxo-3,4-dihydroquinazolin-6-yl)amino)-4-fluorophenyl)-3-fluoropyrrolidine-1-sulfonamide] | 13.7 | 1.49 | 1.63 | 34.3 | –
4 | CCCS(=O)(=O)Nc1ccc(F)c(Nc2ccc3ncn(-c4cccnc4)c(=O)c3c2C)c1Cl [Example 58, N-(2-chloro-4-fluoro-3-((5-methyl-4-oxo-3-(pyridin-3-yl)-3,4-dihydroquinazolin-6-yl)amino)phenyl)propane-1-sulfonamide] | 35.5 | 1.93 | 2.26 | 27.6 | –
5 | [2H]C([2H])([2H])n1cnc2ccc(Nc3c(F)ccc(NS(=O)(=O)CCC)c3Cl)c(C)c2c1=O [Example 24, N-(2-chloro-4-fluoro-3-((5-methyl-3-(methyl-d3)-4-oxo-3,4-dihydroquinazolin-6-yl)amino)phenyl)propane-1-sulfonamide] | – | 1.18 | 1.59 | 25.6 | 9.05
6 | Cc1c(Nc2c(F)ccc(NS(=O)(=O)c3ccccn3)c2Cl)ccc2ncn(C)c(=O)c12 [Example 26, N-(2-chloro-3-((3,5-dimethyl-4-oxo-3,4-dihydroquinazolin-6-yl)amino)-4-fluorophenyl)pyridine-2-sulfonamide] | 49.2 | 6.46 | 2.04 | 30.2 | –
7 | CCCS(=O)(=O)Nc1ccc(F)c(Oc2ccc3ncn(C)c(=O)c3c2C)c1F [Example 71, N-(3-((3,5-dimethyl-4-oxo-3,4-dihydroquinazolin-6-yl)oxy)-2,4-difluorophenyl)propane-1-sulfonamide] | 16.4 | 0.86 | 2.4 | 25.1 | –
8 | CCCS(=O)(=O)Nc1cc(F)cc(Nc2ccc3ncn(C)c(=O)c3c2C)c1F [Example 11, N-(3-((3,5-dimethyl-4-oxo-3,4-dihydroquinazolin-6-yl)amino)-2,5-difluorophenyl)propane-1-sulfonamide] | 16.1 | 2.35 | 1.65 | 28.6 | –
9 | CCCS(=O)(=O)Nc1ncc(F)c(Nc2ccc3ncn(C)c(=O)c3c2C)c1F [Example 16, N-(4-((3,5-dimethyl-4-oxo-3,4-dihydroquinazolin-6-yl)amino)-3,5-difluoropyridin-2-yl)propane-1-sulfonamide] | 17 | 20.3 | 4.76 | 21.3 | –
10 | CCCS(=O)(=O)Nc1ncc(F)c(Oc2ccc3ncn(C)c(=O)c3c2C)c1F [Example 62, N-(4-((3,5-dimethyl-4-oxo-3,4-dihydroquinazolin-6-yl)oxy)-3,5-difluoropyridin-2-yl)propane-1-sulfonamide] | 15.8 | 22.5 | 2.3 | 26.3 | –
11 | CCCS(=O)(=O)Nc1cccc(Nc2ccc3ncn(C)c(=O)c3c2C)c1Cl [Example 3, N-(2-chloro-3-((3,5-dimethyl-4-oxo-3,4-dihydroquinazolin-6-yl)amino)phenyl)propane-1-sulfonamide] | 70.5 | 0.87 | 1.37 | 25.8 | –
12 | CCCS(=O)(=O)Nc1cc(C)cc(Oc2ccc3ncn(C)c(=O)c3c2C)c1F [Example 75, N-(3-((3,5-dimethyl-4-oxo-3,4-dihydroquinazolin-6-yl)oxy)-2-fluoro-5-methylphenyl)propane-1-sulfonamide] | 74.8 | 0.73 | 1.57 | 21.5 | –
13 | CCCS(=O)(=O)Nc1cccc(Oc2ccc3ncn(C)c(=O)c3c2C)c1Cl [Example 78, N-(2-chloro-3-((3,5-dimethyl-4-oxo-3,4-dihydroquinazolin-6-yl)oxy)phenyl)propane-1-sulfonamide] | 10.8 | 0.96 | 1.16 | 29 | –

Second part, the compound after the results:

Row | IC50 [1, 3] [nM] | efflux ratio at 2 h, 1 µM (BCRP) | efflux ratio at 2 h, 1 µM (P-gp (MDR1)) | Papp at 2 h, 1 µM [2] [×10⁻⁶ cm/s] | IC50 [1] [nM] | SMILES
14 | 8.9 | 2.19 | 1.81 | 27.7 | – | CCCS(=O)(=O)Nc1ccc(F)c(Nc2ccc3ncn([C@@H]4CCOC4)c(=O)c3c2C)c1Cl [Example 34, (R)-N-(2-chloro-4-fluoro-3-((5-methyl-4-oxo-3-(tetrahydrofuran-3-yl)-3,4-dihydroquinazolin-6-yl)amino)phenyl)propane-1-sulfonamide trifluoroacetate]
15 | 4.55 | 4.5 | 1.87 | 24.1 | – | CCCS(=O)(=O)Nc1ncc(Cl)c(Nc2ccc3ncn(C)c(=O)c3c2C)c1Cl [Example 15, N-(3,5-dichloro-4-((3,5-dimethyl-4-oxo-3,4-dihydroquinazolin-6-yl)amino)pyridin-2-yl)propane-1-sulfonamide]
16 | 4.25 | 4.24 | 1.91 | 25.6 | – | Cc1c(Oc2cc(F)cc(NS(=O)(=O)CCCF)c2F)ccc2ncn(C)c(=O)c12 [Example 77, N-(3-((3,5-dimethyl-4-oxo-3,4-dihydroquinazolin-6-yl)oxy)-2,5-difluorophenyl)-3-fluoropropane-1-sulfonamide]
17 | 2 | 33 | 6.46 | 26.8 | – | CCCS(=O)(=O)Nc1ccc(F)c(Nc2ccc3ncn(C)c(=O)c3c2C)c1C#N [Example 28, N-(2-cyano-3-((3,5-dimethyl-4-oxo-3,4-dihydroquinazolin-6-yl)amino)-4-fluorophenyl)propane-1-sulfonamide]
18 | 5.1 | 1.26 | 1.45 | 31.8 | – | CCCS(=O)(=O)Nc1cc(F)cc(Oc2ccc3ncn(C)c(=O)c3c2C)c1F [Example 76, N-(3-((3,5-dimethyl-4-oxo-3,4-dihydroquinazolin-6-yl)oxy)-2,5-difluorophenyl)propane-1-sulfonamide]
19 | 6.05 | 2.84 | 1.05 | 24.2 | – | Cc1c(Nc2cc(F)cc(NS(=O)(=O)CCCF)c2Cl)ccc2ncn(C)c(=O)c12 [Example 44, N-(2-chloro-3-((3,5-dimethyl-4-oxo-3,4-dihydroquinazolin-6-yl)amino)-5-fluorophenyl)-3-fluoropropane-1-sulfonamide]
20 | 9.25 | 2.35 | 2.3 | 29 | – | C#Cc1c(Nc2c(F)ccc(NS(=O)(=O)CCC)c2Cl)ccc2ncn(C)c(=O)c12 [Example 60, N-(2-chloro-3-((5-ethynyl-3-methyl-4-oxo-3,4-dihydroquinazolin-6-yl)amino)-4-fluorophenyl)propane-1-sulfonamide]
21 | 9.7 | 25.3 | 5.07 | 6.65 | – | Cc1c(Nc2c(F)cnc(NS(=O)(=O)CCCF)c2F)ccc2ncn(C)c(=O)c12 [Example 17, N-(4-((3,5-dimethyl-4-oxo-3,4-dihydroquinazolin-6-yl)amino)-3,5-difluoropyridin-2-yl)-3-fluoropropane-1-sulfonamide]
22 | 6.2 | 21.1 | 3.24 | 15.9 | – | Cc1c(Nc2c(F)cnc(NS(=O)(=O)CCCF)c2Cl)ccc2ncn(C)c(=O)c12 [Example 19, N-(3-chloro-4-((3,5-dimethyl-4-oxo-3,4-dihydroquinazolin-6-yl)amino)-5-fluoropyridin-2-yl)-3-fluoropropane-1-sulfonamide]
23 | 0.34 | 1.8 | 1.82 | 22.1 | – | Cc1c(Nc2c(F)ccc(NS(=O)(=O)c3cc(F)ccc3F)c2Cl)ccc2ncn(C)c(=O)c12 [Example 25, N-(2-chloro-3-((3,5-dimethyl-4-oxo-3,4-dihydroquinazolin-6-yl)amino)-4-fluorophenyl)-2,5-difluorobenzenesulfonamide]
24 | 4.6 | 1.51 | 1.35 | 24.3 | – | CCCS(=O)(=O)Nc1cc(Cl)cc(Nc2ccc3ncn(C)c(=O)c3c2C)c1F [Example 13, N-(5-chloro-3-((3,5-dimethyl-4-oxo-3,4-dihydroquinazolin-6-yl)amino)-2-fluorophenyl)propane-1-sulfonamide]
